Source: patent US11572590B2, “Methods for evaluating tumor cell spheroids using 3D microfluidic cell culture device” (Dana-Farber Cancer Institute, Inc., priority 2017, dated 2023)
Read-outs that look alike come from different tables or passages of the source.

Legend:
[1] = molecular target: off-target kinases (Homo sapiens, UniProt P19525); experiment: SelectScreen Kinase Profiling, single point inhibition and IC50 for off-target kinases; format: biochemical; settings: EIF2AK2 (PKR), LanthaScreen Binding
[2] = molecular target: T1, off-target kinases (Homo sapiens, UniProt P52333); experiment: as above; format: biochemical; settings: JAK3, ATP Km app, ZLYTE
T1 sequence (P52333 1-1124): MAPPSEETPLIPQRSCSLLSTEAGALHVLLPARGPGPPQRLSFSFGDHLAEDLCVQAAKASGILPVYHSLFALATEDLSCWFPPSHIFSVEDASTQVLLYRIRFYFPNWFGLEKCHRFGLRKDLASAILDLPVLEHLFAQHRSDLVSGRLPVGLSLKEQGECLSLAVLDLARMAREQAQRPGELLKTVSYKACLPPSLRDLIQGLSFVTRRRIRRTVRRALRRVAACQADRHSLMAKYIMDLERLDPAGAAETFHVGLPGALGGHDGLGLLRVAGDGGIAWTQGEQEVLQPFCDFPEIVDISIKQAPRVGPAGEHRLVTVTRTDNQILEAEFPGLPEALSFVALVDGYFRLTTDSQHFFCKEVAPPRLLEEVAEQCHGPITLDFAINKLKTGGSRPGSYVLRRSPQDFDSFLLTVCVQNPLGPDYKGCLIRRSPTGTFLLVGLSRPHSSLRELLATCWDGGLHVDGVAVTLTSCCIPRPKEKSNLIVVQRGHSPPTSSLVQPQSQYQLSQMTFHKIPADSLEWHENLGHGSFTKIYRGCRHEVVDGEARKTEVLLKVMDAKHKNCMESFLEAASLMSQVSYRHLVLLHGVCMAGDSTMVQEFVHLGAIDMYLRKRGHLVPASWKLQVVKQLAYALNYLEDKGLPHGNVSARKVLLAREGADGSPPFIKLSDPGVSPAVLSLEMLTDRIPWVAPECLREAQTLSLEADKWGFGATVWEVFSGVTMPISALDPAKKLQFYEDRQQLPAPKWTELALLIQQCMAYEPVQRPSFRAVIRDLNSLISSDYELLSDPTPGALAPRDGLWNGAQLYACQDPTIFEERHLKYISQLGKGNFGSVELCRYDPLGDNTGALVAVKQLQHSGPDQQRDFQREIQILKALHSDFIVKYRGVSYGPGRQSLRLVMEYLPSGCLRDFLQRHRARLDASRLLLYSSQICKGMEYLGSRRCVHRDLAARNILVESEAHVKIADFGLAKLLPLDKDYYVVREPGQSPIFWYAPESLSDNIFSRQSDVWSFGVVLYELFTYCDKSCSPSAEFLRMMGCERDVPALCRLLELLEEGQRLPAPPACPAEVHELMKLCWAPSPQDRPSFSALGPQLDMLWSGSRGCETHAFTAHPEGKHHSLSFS

off-target kinases (Homo sapiens, UniProt P19525), sequence (P19525 whole entry): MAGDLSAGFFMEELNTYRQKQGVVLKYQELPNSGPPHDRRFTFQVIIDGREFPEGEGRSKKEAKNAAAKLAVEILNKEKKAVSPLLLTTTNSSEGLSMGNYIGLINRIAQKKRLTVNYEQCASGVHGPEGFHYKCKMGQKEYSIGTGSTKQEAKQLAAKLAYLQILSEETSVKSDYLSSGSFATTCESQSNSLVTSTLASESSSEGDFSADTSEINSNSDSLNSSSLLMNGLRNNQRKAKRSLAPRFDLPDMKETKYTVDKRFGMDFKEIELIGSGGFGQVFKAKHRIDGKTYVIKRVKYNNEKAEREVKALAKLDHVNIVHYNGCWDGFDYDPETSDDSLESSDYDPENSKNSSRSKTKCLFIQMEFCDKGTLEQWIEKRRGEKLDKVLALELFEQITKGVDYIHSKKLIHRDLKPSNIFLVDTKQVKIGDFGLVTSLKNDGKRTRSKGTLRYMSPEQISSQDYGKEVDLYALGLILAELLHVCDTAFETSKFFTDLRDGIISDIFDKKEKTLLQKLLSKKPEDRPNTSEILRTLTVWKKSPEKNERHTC

N#Cc1cc(-c2ncnc(Nc3ccc(N4CCN(C5COC5)CC4)cc3)n2)ccc1OC1CCOCC1 [Compound 1, 5-(4-((4-(4-(oxetan-3-yl)piperazin-1-yl)phenyl)amino)-1,3,5-triazin-2-yl)-2-((tetrahydro-2H-pyran-4-yl)oxy)benzonitrile]
inhibition ([1]; read-out: % Inhibition 1): 90% | inhibition ([1]; read-out: % Inhibition 2): 89% | inhibition ([1]; read-out: % Inhibition Avg): 89% | inhibition ([2]; read-out: % Inhibition 1): 73% | inhibition ([2]; read-out: % Inhibition 2): 73% | inhibition ([2]; read-out: % Inhibition Avg): 73%
